Data published in PubChem BioAssay (NCI).
Several values for one entry are separate records, joined by “and”; a condition that tells them apart may be missing. Equal entries are not always repeated.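 Where inhibition never reached the appropriate level, the endpoint shown equals the highest concentration tested. Otherwise, values were interpolated linearly from a five-concentration, 48-hour dose response in 96-well plates. GI50 marks 50% less growth. TGI marks complete inhibition of growth.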

Test system: MDA-MB-468 breast
Experiment: DTP human tumour cell line panel, 48 h

Point of comparison: COc1cc(/C=C/c2ccnc3ccccc23)cc(OC)c1OC, GI50 1.19 µM. Against it:
- CN(c1ccc(F)cc1)S(=O)(=O)c1ccc(-c2cnc(C3CC3)o2)cc1 — 22-fold lower, 0.0544 µM
- O=C(CCl)Nc1ccc(Cc2ccc(NC(=O)CCl)cc2)cc1 — 1.7-fold higher, 2.03 µM
- Cn1cc(-c2nc(-c3cn(C)c4ncccc34)cs2)c2ccccc21 — 7-fold lower, 0.169 µM
- CCOC(=O)c1cc2c(n1Cc1ccccc1OC)-c1oncc1CCC2 — 2.5-fold higher, 2.95 µM
- CN(C)C/C=C/C(=O)Nc1cc2c(Nc3cccc(Cl)c3F)ncnc2cc1OCCOC(F)F — lower, < 0.01 µM
- O=C(c1ccc(Nc2nccc(NCCCCNc3ccnc4cc(Cl)ccc34)n2)cc1)N1CCCCC1 — within 1.5-fold, 1.47 µM
- CCC(C(=O)[C@@H](C)[C@@H](O)[C@H](C)[C@@H]1O[C@@H]([C@@H](CC)C(=O)ONC(=O)c2ccccc2)CC[C@@H]1C)[C@H]1O[C@]2(C=CC(=O)[C@]3(CC[C@@](C)([C@H]4CC[C@](O)(CC)[C@H](C)O4)O3)O2)[C@H](C)C[C@@H]1C (some centres not stated) — 12-fold lower, 0.0992 µM
- CC1(C)CC[C@]2(CO)CC[C@]3(C)C(=CC[C@@H]4[C@@]5(C)CCNCC(C)(C)[C@@H]5CC[C@]43C)[C@@H]2C1 — 1.5-fold higher, 1.8 µM
- CCN(CC)CCCNc1cc(OC)c(OC)c2cccnc12 — 3.2-fold higher, 3.85 µM
- CCOC(=O)c1cc2c(n1Cc1cc(OC)cc(OC)c1)-c1oncc1CC2 — 33-fold lower, 0.0364 µM
- O=C(Nc1ccc(Cl)cc1)N1CCN(c2ccc3nncn3n2)CC1 — 23-fold higher, 26.9 µM
- CN1CCN(c2ccc(Nc3nc(NCCCNS(=O)(=O)c4ccc(F)cc4)c4sccc4n3)cc2)CC1 — 8.6-fold higher, 10.2 µM
- CCCCC[C@H]1C/C=C2/C(=O)C(Cl)=C[C@@H]2C/C=C\CCCC(=O)O1 — 3.3-fold lower, 0.357 µM
- NCCCNc1nc2ccccc2c2c(=O)c3cc(F)cc(Cl)c3sc12 — within 1.5-fold, 1.69 µM
- CCC(=C(c1ccc(OCCN2CCCC2)cc1)c1ccc(OCCN2CCCC2)cc1)c1ccc(Cl)cc1 — 2.2-fold lower, 0.533 µM
- O=C(CC1Sc2ccccc2NC1=O)NNc1ccc(F)cc1 (configuration not stated) — higher, > 100 µM
- CC[C@H](CO)Nc1ccc2ncc(C#Cc3cncc(C(=O)Nc4ccc(CN5CCN(C)CC5)c(C(F)(F)F)c4)c3)n2n1 — 9.4-fold lower, 0.126 µM
- CC[Si](CC)(CC)OC1[C@@H](O[Si](CC)(CC)CC)[C@@H](CNC(=O)NC)O[C@H]1n1cnc2c(NC(=O)Nc3ccccc3)ncnc21 (some centres not stated) — 3.6-fold higher, 4.24 µM
- COc1ccc2nc3ccccc3c(NCc3ccccc3)c2c1 — within 1.5-fold, 1.77 µM
- CC(C)(C)OC(=O)N1Cc2cc3ccccc3nc2C1CO (configuration not stated) — higher, > 100 µM
- C=C1C(=O)O[C@H]2[C@H]1CC/C(COC(=O)N[C@H](Cc1c[nH]c3ccccc13)C(=O)OC)=C\CC[C@@]1(C)O[C@@H]21 — within 1.5-fold, 1.02 µM
- O=c1[nH]c2ccccc2n1C1CCN(CCOc2ccccc2)CC1 — 5.3-fold higher, 6.25 µM
- COc1ccc(NC(=O)c2cccc(C3CCc4c(cc(OC)c(OC)c4OC)O3)c2)cc1 (configuration not stated) — 2.2-fold higher, 2.6 µM
- Nc1no[n+]([O-])c1-c1nnc2c(n1)-c1ccccc1C2=O — 1.8-fold higher, 2.19 µM
- Nc1nc(N)c(-c2ccc(Cl)c(Cl)c2)c(CP(Cl)(Cl)(Cl)Br)n1 — 6.3-fold higher, 7.45 µM
- COc1cc(NCCC2CCCCN2)c2ncccc2c1OC (configuration not stated) — 1.7-fold higher, 2.07 µM
- Cc1nn(-c2ccccc2)c2nc(C)n(-c3ccc(Br)cc3)c(=O)c12 — 2.5-fold lower, 0.476 µM
- CC(=O)/C=C/c1ccc(N(CCO)Cc2ccc(C(C)(C)C)cc2)cc1 — 26-fold higher, 31.1 µM
- CCN(CC)CCCC(C)Nc1ccnc(/C=C/c2ccc(Cl)cc2)c1 (configuration not stated) — within 1.5-fold, 1.45 µM
- C=C1C(=O)O[C@H]2[C@H]1CC/C(COC(=O)/C=C\C(=O)NCc1ccc(Cn3c(=O)sn(-c4ccc(Cl)cc4)c3=O)cc1)=C\CC[C@@]1(C)O[C@@H]21 — 2.1-fold lower, 0.568 µM
- CC1(C)CN(CCNc2nccc(-c3c(-c4cccc(O)c4)nc4sccn34)n2)S(=O)(=O)N1 — 5.9-fold higher, 7.03 µM
- Cc1ccc(NC2=CC(=O)C(=O)c3ccccc32)cc1 — 1.7-fold higher, 1.97 µM
- OCC1OC(n2cnc3c(NCc4ccco4)ncnc32)C(O)C1O (configuration not stated) — within 1.5-fold, 1.36 µM
- C[C@@H](Oc1cc(-c2cnn(C3CCNCC3)c2)cnc1N)c1c(Cl)cc(F)cc1Cl — within 1.5-fold, 1.31 µM
- COc1cccc(-c2nn(-c3ccccc3)cc2-c2ccnc(NCCCNS(=O)(=O)c3ccc(C(F)(F)F)cc3)c2)c1 — 2.6-fold higher, 3.11 µM
- C=CCN1C(=O)[C@]2(SC1=S)[C@H](c1cccc(Cl)c1)CN(C)[C@]21C(=O)NC2C=CC(Cl)=C[C@H]21 (some centres not stated) — 2.7-fold higher, 3.24 µM
- CCOC(=O)c1cc(C(=O)c2cc(OC)c(OC)c(OC)c2)n2ccc(-c3cc[n+](CC(=O)c4cc(OC)c(OC)c(OC)c4)cc3)cc12 — 1.6-fold higher, 1.94 µM

Point of comparison: O=c1[nH]c2ccccc2n1C1CCN(CCOc2ccccc2)CC1, TGI 57.8 µM. Against it:
- CN(c1ccc(F)cc1)S(=O)(=O)c1ccc(-c2cnc(C3CC3)o2)cc1 — 6.4-fold lower, 8.98 µM
- O=C(CCl)Nc1ccc(Cc2ccc(NC(=O)CCl)cc2)cc1 — 10-fold lower, 5.57 µM
- Cn1cc(-c2nc(-c3cn(C)c4ncccc34)cs2)c2ccccc21 — 80-fold lower, 0.719 µM
- CCOC(=O)c1cc2c(n1Cc1ccccc1OC)-c1oncc1CCC2 — higher, > 100 µM
- O=C(c1ccc(Nc2nccc(NCCCCNc3ccnc4cc(Cl)ccc34)n2)cc1)N1CCCCC1 — 17-fold lower, 3.47 µM
- CCC(C(=O)[C@@H](C)[C@@H](O)[C@H](C)[C@@H]1O[C@@H]([C@@H](CC)C(=O)ONC(=O)c2ccccc2)CC[C@@H]1C)[C@H]1O[C@]2(C=CC(=O)[C@]3(CC[C@@](C)([C@H]4CC[C@](O)(CC)[C@H](C)O4)O3)O2)[C@H](C)C[C@@H]1C (some centres not stated) — 59-fold lower, 0.979 µM
- CC1(C)CC[C@]2(CO)CC[C@]3(C)C(=CC[C@@H]4[C@@]5(C)CCNCC(C)(C)[C@@H]5CC[C@]43C)[C@@H]2C1 — 15-fold lower, 3.79 µM
- CCN(CC)CCCNc1cc(OC)c(OC)c2cccnc12 — 4-fold lower, 14.6 µM
- CCOC(=O)c1cc2c(n1Cc1cc(OC)cc(OC)c1)-c1oncc1CC2 — 220-fold lower, 0.268 µM
- O=C(Nc1ccc(Cl)cc1)N1CCN(c2ccc3nncn3n2)CC1 — 1.7-fold higher, 99.3 µM
- CN1CCN(c2ccc(Nc3nc(NCCCNS(=O)(=O)c4ccc(F)cc4)c4sccc4n3)cc2)CC1 — 2.6-fold lower, 22.6 µM
- CCCCC[C@H]1C/C=C2/C(=O)C(Cl)=C[C@@H]2C/C=C\CCCC(=O)O1 — 56-fold lower, 1.04 µM
- NCCCNc1nc2ccccc2c2c(=O)c3cc(F)cc(Cl)c3sc12 — 16-fold lower, 3.71 µM
- COc1cc(/C=C/c2ccnc3ccccc23)cc(OC)c1OC — 10-fold lower, 5.67 µM
- CCC(=C(c1ccc(OCCN2CCCC2)cc1)c1ccc(OCCN2CCCC2)cc1)c1ccc(Cl)cc1 — 54-fold lower, 1.07 µM
- NC(Cc1c[nH]c2cccc(F)c12)C(=O)O (configuration not stated) — 35-fold higher, 2050 µM
- O=C(CC1Sc2ccccc2NC1=O)NNc1ccc(F)cc1 (configuration not stated) — higher, > 100 µM
- CC[C@H](CO)Nc1ccc2ncc(C#Cc3cncc(C(=O)Nc4ccc(CN5CCN(C)CC5)c(C(F)(F)F)c4)c3)n2n1 — 150-fold lower, 0.376 µM
- CC[Si](CC)(CC)OC1[C@@H](O[Si](CC)(CC)CC)[C@@H](CNC(=O)NC)O[C@H]1n1cnc2c(NC(=O)Nc3ccccc3)ncnc21 (some centres not stated) — within 1.5-fold, 57.4 µM
- COc1ccc2nc3ccccc3c(NCc3ccccc3)c2c1 — 14-fold lower, 4.05 µM
- CC(C)(C)OC(=O)N1Cc2cc3ccccc3nc2C1CO (configuration not stated) — higher, > 100 µM
- C=C1C(=O)O[C@H]2[C@H]1CC/C(COC(=O)N[C@H](Cc1c[nH]c3ccccc13)C(=O)OC)=C\CC[C@@]1(C)O[C@@H]21 — 15-fold lower, 3.92 µM
- COc1ccc(NC(=O)c2cccc(C3CCc4c(cc(OC)c(OC)c4OC)O3)c2)cc1 (configuration not stated) — higher, > 100 µM
- Nc1no[n+]([O-])c1-c1nnc2c(n1)-c1ccccc1C2=O — 10-fold lower, 5.64 µM
- Nc1nc(N)c(-c2ccc(Cl)c(Cl)c2)c(CP(Cl)(Cl)(Cl)Br)n1 — 1.6-fold lower, 36.1 µM
- COc1cc(NCCC2CCCCN2)c2ncccc2c1OC (configuration not stated) — 14-fold lower, 4.18 µM
- Cc1nn(-c2ccccc2)c2nc(C)n(-c3ccc(Br)cc3)c(=O)c12 — within 1.5-fold, 53 µM
- CC(=O)/C=C/c1ccc(N(CCO)Cc2ccc(C(C)(C)C)cc2)cc1 — 2.2-fold higher, 127 µM
- CCN(CC)CCCC(C)Nc1ccnc(/C=C/c2ccc(Cl)cc2)c1 (configuration not stated) — 20-fold lower, 2.86 µM
- C=C1C(=O)O[C@H]2[C@H]1CC/C(COC(=O)/C=C\C(=O)NCc1ccc(Cn3c(=O)sn(-c4ccc(Cl)cc4)c3=O)cc1)=C\CC[C@@]1(C)O[C@@H]21 — 42-fold lower, 1.37 µM
- CC1(C)CN(CCNc2nccc(-c3c(-c4cccc(O)c4)nc4sccn34)n2)S(=O)(=O)N1 — not separable, > 33.2 µM
- Cc1ccc(NC2=CC(=O)C(=O)c3ccccc32)cc1 — 10-fold lower, 5.74 µM
- OCC1OC(n2cnc3c(NCc4ccco4)ncnc32)C(O)C1O (configuration not stated) — 18-fold lower, 3.16 µM
- C[C@@H](Oc1cc(-c2cnn(C3CCNCC3)c2)cnc1N)c1c(Cl)cc(F)cc1Cl — 20-fold lower, 2.92 µM
- COc1cccc(-c2nn(-c3ccccc3)cc2-c2ccnc(NCCCNS(=O)(=O)c3ccc(C(F)(F)F)cc3)c2)c1 — higher, > 100 µM
- C=CCN1C(=O)[C@]2(SC1=S)[C@H](c1cccc(Cl)c1)CN(C)[C@]21C(=O)NC2C=CC(Cl)=C[C@H]21 (some centres not stated) — 4-fold lower, 14.3 µM
- CCOC(=O)c1cc(C(=O)c2cc(OC)c(OC)c(OC)c2)n2ccc(-c3cc[n+](CC(=O)c4cc(OC)c(OC)c(OC)c4)cc3)cc12 — 15-fold lower, 3.81 µM

In the case of NC(Cc1c[nH]c2cccc(F)c12)C(=O)O (configuration not stated), the GI50 is reported as 50.8 µM and 494 µM.
